Measured values taken from patent US9850283B2, “Macrocyclic inhibitors of the PD-1/PD-L1 and CD80(B7-1)/PD-L1 protein/protein interactions” (BRISTOL-MYERS SQUIBB COMPANY, priority 2013, dated 2017).
Starred links: 1 amine or outer side, 2 acyl side, 3 side chain; linkers in the order of their positions; H or OH if unused. Positions of bridges follow the written chain, without caps; N, C: chain ends. Non-standard residues stand in square brackets, D forms with d. Residues, ends and D or L forms follow the SMILES beside them. ξ: configuration not given here. X19 = CCCOc1cccc(-c2[nH]c3ccccc3c2C[C@H](N[*:1])C(=O)[*:2])c1; X5 = CCCOc1ccc(-c2[nH]c3ccccc3c2C[C@H](N[*:1])C(=O)[*:2])cc1; X2 = CCOc1ccc(-c2[nH]c3ccccc3c2C[C@H](N[*:1])C(=O)[*:2])cc1; X7 = COc1ccc(-c2[nH]c3ccccc3c2C[C@H](N[*:1])C(=O)[*:2])cc1; Hyp = O=C(O)[C@@H]1C[C@@H](O)CN1; NMeNle = CCCC[C@H](NC)C(=O)O; ξR = N=C(N)NCCCC(N)C(=O)O; NMeA = CN[C@@H](C)C(=O)O; Dab = NCC[C@H](N)C(=O)O; Dap = NC[C@H](N)C(=O)O

Tests used:
[1] = molecular target: T1, Human PD-L1/PD-1 (Homo sapiens, UniProt Q9NZQ7); assay: HTRF PD-1-Ig/PD-L1-His binding assay (human PD-L1); conditions: cluster symbol; read-out: HTRF IC50 cluster
T1 construct: made in house; host or cells: HEK293T
In short: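 Readout: time-resolved FRET between Eu cryptate-labeled anti-Ig (1 nM final) and APC-labeled anti-His (20 nM final) antibodies. These detect interaction of Fc-fused PD-1 with His-tagged human PD-L1 in dPBS containing 0.1% BSA and 0.05% Tween-20.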

[2] = molecular target: T2, LK35.2-hPD-L1 cells / PE-labeled PD-1-Ig (Homo sapiens, UniProt Q9NZQ7); assay: LK35.2-hPD-L1 cell binding high-content screening assay; format: cell-based; conditions: cell binding assay, cell line not given; cluster symbol; read-out: CBA IC50 cluster
T2 construct: expressed in transfected cells; host or cells: LK35.2 mouse B cell line
In short: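 Fluorescent PD-1-Ig binding to PD-L1-expressing LK35.2 cells, imaged after washing. Conditions: 1 nM PE-PD-1-Ig, 37 °C, 1 h, RPMI with 10% fetal calf serum.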

T1 sequence (Q9NZQ7 with tags, fused parts or gaps): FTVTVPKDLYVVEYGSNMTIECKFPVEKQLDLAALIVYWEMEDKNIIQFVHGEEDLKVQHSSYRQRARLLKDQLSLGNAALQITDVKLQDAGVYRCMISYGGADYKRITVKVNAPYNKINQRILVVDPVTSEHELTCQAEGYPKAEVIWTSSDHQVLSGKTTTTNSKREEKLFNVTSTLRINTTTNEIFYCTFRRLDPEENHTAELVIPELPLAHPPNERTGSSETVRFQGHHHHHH
T2 sequence (Q9NZQ7 19-290): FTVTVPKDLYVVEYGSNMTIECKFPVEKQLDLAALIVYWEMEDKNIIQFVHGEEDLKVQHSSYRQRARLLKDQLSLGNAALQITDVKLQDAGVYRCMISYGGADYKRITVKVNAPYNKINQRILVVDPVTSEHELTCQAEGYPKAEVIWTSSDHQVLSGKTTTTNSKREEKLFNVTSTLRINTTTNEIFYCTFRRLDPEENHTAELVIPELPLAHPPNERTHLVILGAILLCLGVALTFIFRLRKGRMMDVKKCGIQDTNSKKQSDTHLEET

Row | Compound | IC50 [1] [nM] | IC50 [2] [nM]
1 | CCCC[C@H]1C(=O)N(C)[C@@H](CCCC)C(=O)NC(CCCNC(=N)N)C(=O)N[C@H](C(=O)NCC(N)=O)CSCC(=O)N[C@@H](Cc2ccc(O)cc2)C(=O)N(C)[C@@H](C)C(=O)N[C@@H](CC(N)=O)C(=O)N2CCC[C@H]2C(=O)N[C@@H](CN)C(=O)N[C@@H](CC(C)C)C(=O)N2C[C@H](O)C[C@H]2C(=O)N[C@@H](Cc2c[nH]c3ccccc23)C(=O)N[C@@H](CO)C(=O)N[C@@H](Cc2c(-c3cccc(OCCC)c3)[nH]c3ccccc23)C(=O)N1C (some centres unmarked) [Example 7004] ({CH2CO}-Y[NMeA]NP[Dap]L[Hyp]WS[X19][NMeNle][NMeNle][ξR]CG-NH2; thioether N-14) | 0.385 to 6.74 | 4.78 to 72.9
2 | CCCC[C@H]1C(=O)N(C)[C@@H](CCCC)C(=O)NC(CCCNC(=N)N)C(=O)N[C@H](C(=O)NCC(N)=O)CSCC(=O)N[C@@H](Cc2ccc(O)cc2)C(=O)N(C)[C@@H](C)C(=O)N[C@@H](CC(N)=O)C(=O)N2CCC[C@H]2C(=O)N[C@@H](CN)C(=O)N[C@@H](CC(C)C)C(=O)N2C[C@H](O)C[C@H]2C(=O)N[C@@H](Cc2c[nH]c3ccccc23)C(=O)N[C@@H](CO)C(=O)N[C@@H](Cc2c(-c3ccc(OCCC)cc3)[nH]c3ccccc23)C(=O)N1C (some centres unmarked) [Example 7005] ({CH2CO}-Y[NMeA]NP[Dap]L[Hyp]WS[X5][NMeNle][NMeNle][ξR]CG-NH2; thioether N-14) | 0.385 to 6.74 | 4.78 to 72.9
3 | CCCC[C@H]1C(=O)N(C)[C@@H](CCCC)C(=O)NC(CCCNC(=N)N)C(=O)N[C@H](C(=O)NCC(N)=O)CSCC(=O)N[C@@H](Cc2ccc(O)cc2)C(=O)N(C)[C@@H](C)C(=O)N[C@@H](CC(N)=O)C(=O)N2CCC[C@H]2C(=O)N[C@@H](CN)C(=O)N[C@@H](CC(C)C)C(=O)N2C[C@H](O)C[C@H]2C(=O)N[C@@H](Cc2c[nH]c3ccccc23)C(=O)N[C@@H](CO)C(=O)N[C@@H](Cc2c(-c3ccc(OC)cc3)[nH]c3ccccc23)C(=O)N1C (some centres unmarked) [Example 7006] ({CH2CO}-Y[NMeA]NP[Dap]L[Hyp]WS[X7][NMeNle][NMeNle][ξR]CG-NH2; thioether N-14) | 0.385 to 6.74 | 0.158 to 4.71
4 | CCCC[C@H]1C(=O)N(C)[C@@H](CCCC)C(=O)NC(CCCNC(=N)N)C(=O)N[C@H](C(=O)NCC(N)=O)CSCC(=O)N[C@@H](Cc2ccc(O)cc2)C(=O)N(C)[C@@H](C)C(=O)N[C@@H](CC(N)=O)C(=O)N2CCC[C@H]2C(=O)N[C@@H](CN)C(=O)N[C@@H](CC(C)C)C(=O)N2CCC[C@H]2C(=O)N[C@@H](Cc2c[nH]c3ccccc23)C(=O)N[C@@H](CO)C(=O)N[C@@H](Cc2c(-c3ccc(OC)cc3)[nH]c3ccccc23)C(=O)N1C (some centres unmarked) [Example 7008] ({CH2CO}-Y[NMeA]NP[Dap]LPWS[X7][NMeNle][NMeNle][ξR]CG-NH2; thioether N-14) | 0.385 to 6.74 | 0.158 to 4.71

Next, values leading:

Row | IC50 [1] [nM] | IC50 [2] [nM] | Compound
5 | 0.385 to 6.74 | 0.158 to 4.71 | CCCC[C@H]1C(=O)N(C)[C@@H](CCCC)C(=O)NC(CCCNC(=N)N)C(=O)N[C@H](C(=O)NCC(N)=O)CSCC(=O)N[C@@H](Cc2ccc(O)cc2)C(=O)N(C)[C@@H](C)C(=O)N[C@@H](CC(N)=O)C(=O)N2CCC[C@H]2C(=O)N[C@@H](CN)C(=O)N[C@@H](CC(C)C)C(=O)N2C[C@H](O)C[C@H]2C(=O)N[C@@H](Cc2c[nH]c3ccccc23)C(=O)N[C@@H](CO)C(=O)N[C@@H](Cc2c(-c3ccc(OCC)cc3)[nH]c3ccccc23)C(=O)N1C (some centres unmarked) [Example 7009] ({CH2CO}-Y[NMeA]NP[Dap]L[Hyp]WS[X2][NMeNle][NMeNle][ξR]CG-NH2; thioether N-14)
6 | 0.385 to 6.74 | 4.78 to 72.9 | CCCC[C@H]1C(=O)N(C)[C@@H](CCCC)C(=O)NC(CCCNC(=N)N)C(=O)N[C@H](C(=O)NCC(N)=O)CSCC(=O)N[C@@H](Cc2ccc(O)cc2)C(=O)N(C)[C@@H](C)C(=O)N[C@@H](CC(N)=O)C(=O)N2CCC[C@H]2C(=O)N[C@@H](CCN)C(=O)N[C@@H](CC(C)C)C(=O)N2C[C@H](O)C[C@H]2C(=O)N[C@@H](Cc2c[nH]c3ccccc23)C(=O)N[C@@H](CO)C(=O)N[C@@H](Cc2c(-c3ccc(OCC)cc3)[nH]c3ccccc23)C(=O)N1C (some centres unmarked) [Example 7010] ({CH2CO}-Y[NMeA]NP[Dab]L[Hyp]WS[X2][NMeNle][NMeNle][ξR]CG-NH2; thioether N-14)
7 | 0.385 to 6.74 | 4.78 to 72.9 | CCCC[C@H]1C(=O)N(C)[C@@H](CCCC)C(=O)NC(CCCNC(=N)N)C(=O)N[C@H](C(=O)NCC(N)=O)CSCC(=O)N[C@@H](Cc2ccc(O)cc2)C(=O)N(C)[C@@H](C)C(=O)N[C@@H](CC(N)=O)C(=O)N2CCC[C@H]2C(=O)N[C@@H](CN)C(=O)N[C@@H](CC(C)C)C(=O)N2CCC[C@H]2C(=O)N[C@@H](Cc2c[nH]c3ccccc23)C(=O)N[C@@H](CO)C(=O)N[C@@H](Cc2c(-c3ccc(OCC)cc3)[nH]c3ccccc23)C(=O)N1C (some centres unmarked) [Example 7011] ({CH2CO}-Y[NMeA]NP[Dap]LPWS[X2][NMeNle][NMeNle][ξR]CG-NH2; thioether N-14)
